Assay results: US4006232A, “Therapeutic method of treating cardiac arrhythmias utilizing 3-substituted diphenylhydantoins” (Miles Laboratories, Inc., priority 1974, dated 1977)
Values after ≈ are worked out from the molar mass of the structure shown. Structures can show the parent of a compound that is named as a salt. Where two headings read alike, the source gives them in different places.

Assays:
[1] = test system: ventricular rate and rhythm; test: Antiarrhythmic activity: protection against chloroform-induced ventricular arrhythmia in mice (Lawson); type: in vivo; details: Mus musculus, ip, 10 min; intraperitoneal, 10 min before chloroform; protected = ventricular rate not exceeding 100 contractions in 30 s; groups of 5 mice; parentheses = 95% confidence limits; read-out: ED50 (95% CL)
Experimental: The antiarrhythmic activity of the compounds of this invention, specifically those enumerated in the Summary and presented as the above examples, was compared to that of diphenylhydantoin (I), 3-(3-diethylaminopropyl)- 5,5-diphenylhydantoin (II), 3-[3-(1-piperidyl)-propyl]- 5,5-diphenylhydantoin (III), and 3-(3-morpholinopropyl)-5,5-diphenylhydantoin (IV).
(§1) The tests compounds were administered to groups consisting of 5 mice in varying intraperitoneal doses. Ten minutes after administration of a given dose of a compound, a mouse was transferred to a covered 300 ml glass beaker which contained a wad of cotton saturated with about 20 ml of chloroform. The animal was observed closely and removed from the beaker immediately after respiratory arrest. The heart was quickly exposed by making an incision through the abdomen, diaphragm, thorax and pericardium for visual inspection of ventricular rate and rhythm. Ventricular contractions were counted for 30 seconds. According to the procedure reported by Lawson (J. Pharmacol. Exp. Therap., 160:22 [1968]), animals with a ventricular rate not exceeding 100 contractions during the 30 second observation period were considered protected. Results obtained with each dose were used to calculate the mean effective doses (ED50) after the method of Litchfield and Wilcoxon (J. Pharmacol. Exp. Therap. 96: 99-113 [ 1949]).
In Table A, the compounds of this invention are listed by the arabic numeral assigned in the Summary and the above corresponding Example Number; the Roman numerals refer to the compounds so designated above in this Example and in the Description of the Prior Art.

in vivo = type: in vivo; details: intraperitoneal; for MLD (Minimum Lethal Dose): deaths before exposure to chloroform; for selectivity ratio: mouse, in vivo, ip, calculated with Minimum Lethal Dose data, read-out: MLD/ED50 (Therapeutic Index)
Experimental: as §1

Guinea pig atria = test: Refractory period in isolated atria, electrical stimulation (Dawes); details: Cavia porcellus, read-out: EC50 (amount necessary for increasing the minimum interval by 50 percent over control values)
Experimental: The effect of the compounds of this invention on the refractory period in the atrium was studied and compared to that hydantoin according to the procedure described by Dawes (Brit. J. Pharmacol., 1: 90, [1946]).
Guinea pig atria, suspended in an isolated organ chamber, were stimulated electrically at increasing frequencies while the resulting mechanical contractions were recorded. The minimum interval between two consecutive stimuli necessary for eliciting a mechanical response was determined before and after incubation with varying concentrations of the test compounds. The minimum interval thus determined is an indirect measure of the refractory period in the tissue, and a prolongation of this interval indicates an increased refractory period. From the increase in minimum interval observed with each concentration, the amount necessary for increasing the interval by 50 percent over control values (EC50) was determined for each compound.

heart = details: prior art; cited from earlier work
[2] = prior art, cited from earlier work
[3] = extent of activity of DPH; cited from earlier work
[4] = guinea pig atria, electrical stimulation, indirect measure of refractory period

## O=C1NC(=O)C(c2ccccc2)(c2ccccc2)N1 [I, 5,5-diphenyl-2,4-imidazolidinedione]
[1]
  ED50: 394 mg/kg
In vivo
  MLD (Minimum Lethal Dose): 1000 mg/kg
Guinea pig atria; [4]
  EC50: 20 µg/mL (≈ 79.3 µM)
heart
  action on ventricular arrhythmias induced by digitalis: antagonize ventricular arrhythmias induced by digitalis
  atrio-ventricular nodal conduction: enhances atrio-ventricular nodal conduction
  effective refractory period: reduces the effective refractory period
  ventricular automaticity: depresses ventricular automaticity
[2]; large doses
  side effects of large doses: atrio-ventricular blockage, bradycardia, or even cardiac arrest
[2]
  untoward side effects: dizziness, nausea, emesis, nystigmus, and ataxia

## O=C1NC(c2ccccc2)(c2ccccc2)C(=O)N1CCCN1CCOCC1 [IV, 3-(3-morpholinopropyl)-5,5-diphenylhydantoin, reference compound]
[1]
  ED50: 76 mg/kg
In vivo
  MLD (Minimum Lethal Dose): 178 mg/kg
  selectivity ratio: 2.34

## O=C1NC(c2ccccc2)(c2ccccc2)C(=O)N1CCN1CC=C(c2ccccc2)CC1 [Compound 4, 5,5-diphenyl-3-[2-(4-phenyl-1,2,3,6-tetrahydropyridyl)ethyl]hydantoin hydrochloride]
[1]
  ED50: 96 mg/kg
In vivo
  MLD (Minimum Lethal Dose): > 178 mg/kg
  selectivity ratio: > 1.85
Guinea pig atria
  EC50: 5.7 µg/mL

## O=C1NC(c2ccccc2)(c2ccccc2)C(=O)N1CCCN1CCCCC1 [III, 3-[3(1-piperidyl)propyl]-5,5-diphenylhydantoin, reference compound]
[1]
  ED50: 19 mg/kg
In vivo
  MLD (Minimum Lethal Dose): 31 mg/kg
  selectivity ratio: 1.63

## Cc1ccc(C2(c3ccc(C)cc3)NC(=O)N(CCCN3CCC(c4ccccc4)CC3)C2=O)cc1 [Compound 13, 3-[3-(4-phenyl-1-piperidyl)propyl]-5,5-di(4-tolyl)hydantoin]
[1]
  ED50: 4.5 mg/kg
In vivo
  MLD (Minimum Lethal Dose): > 100 mg/kg
  selectivity ratio: > 22.2
Guinea pig atria; [4]
  EC50: > 10 µg/mL

## Cc1ccc(C2(c3ccc(C)cc3)NC(=O)N(CCCN3CCC(O)(c4ccccc4)CC3)C2=O)cc1 [Compound 18, 3-[3-(4-hydroxy-4-phenyl-1-piperidyl)propyl]-5,5-di-(4-tolyl)hydantoin]
[1]
  ED50: 24 mg/kg
In vivo
  MLD (Minimum Lethal Dose): > 100 mg/kg
  selectivity ratio: > 4.17
Guinea pig atria
  EC50: 1.9 µg/mL (≈ 3.82 µM)

## Cc1ccc(C2(c3ccccc3)NC(=O)N(CCCN3CCC(c4ccccc4)CC3)C2=O)cc1.O=C(O)/C=C\C(=O)O (centres unmarked) [Compound 12, 3-[3-(4-phenyl-1-piperidyl)propyl]-5-phenyl-5-(4-tolyl)hydantoin maleate]
[1]
  ED50: 19.5 mg/kg
In vivo
  MLD (Minimum Lethal Dose): > 100 mg/kg
  selectivity ratio: > 5.13
Guinea pig atria; [4]
  EC50: 4.8 µg/mL

## CC(C)(C)NCC(O)CN1C(=O)NC(c2ccccc2)(c2ccccc2)C1=O.Cl (centres unmarked) [Compound 6, 3-(3-t-butylamino-2-hydroxypropyl)-5,5-diphenylhydantoin hydrochloride]
[1]
  ED50: 9.4 mg/kg
In vivo
  MLD (Minimum Lethal Dose): 100 mg/kg
  selectivity ratio: 10.6
Guinea pig atria; [4]
  EC50: 1.5 µg/mL

## Nc1ccc(C2(c3ccccc3)NC(=O)N(CCCN3CCC(c4ccccc4)CC3)C2=O)cc1 (centres unmarked) [Compound 15, 3-[3-(4-phenyl-1-piperidyl)propyl]-5-(4-aminophenyl)-5-phenylhydantoin]
[1]
  ED50: 3.4 mg/kg
In vivo
  MLD (Minimum Lethal Dose): > 100 mg/kg
  selectivity ratio: > 29.4
Guinea pig atria; [4]
  EC50: 3.7 µg/mL (≈ 7.9 µM)

## O=C(O)/C=C\C(=O)O.O=C1NC(c2ccccc2)(c2ccccc2)C(=O)N1CCCN1CCN(c2ccccc2)CC1 [Compound 1, 3-[3-(4-phenyl-1-piperazinyl)propyl]-5,5-diphenylhydantoin maleate]
[1]
  ED50: 16.4 mg/kg
In vivo
  MLD (Minimum Lethal Dose): > 160 mg/kg
  selectivity ratio: > 9.77
Guinea pig atria; [4]
  EC50: 4.4 µg/mL

## COc1ccc(C2(c3ccc(OC)cc3)NC(=O)N(CCCN3CCC(c4ccccc4)CC3)C2=O)cc1.Cl [Compound 10, 3-[3-(4-phenyl-1-piperidyl)propyl]-5,5-di(4-methoxyphenyl)hydantoin hydrochloride]
[1]
  ED50: 34 mg/kg
In vivo
  MLD (Minimum Lethal Dose): > 178 mg/kg
  selectivity ratio: > 5.24
Guinea pig atria; [4]
  EC50: 6.4 µg/mL

## Nc1ccc(C2(c3ccccc3)NC(=O)NC2=O)cc1 (centres unmarked) [5-(4-aminophenyl)-5-phenylhydantoin]
[3]
  activity relative to DPH: 50%

## O=C1NC(c2ccccc2)(c2ccccc2)C(=O)N1CCCN1CCC(c2ccccc2)CC1 [Compound 2, 3-[3-(4-phenyl-1-piperidyl)propyl]-5,5-diphenylhydantoin]
[1]
  ED50: 13.5 mg/kg
In vivo
  MLD (Minimum Lethal Dose): 320 mg/kg
  selectivity ratio: 23.7
Guinea pig atria; [4]
  EC50: 1.1 µg/mL (≈ 2.43 µM)

## Cl.O=C1NC(c2ccccc2)(c2ccccc2)C(=O)N1CCCN1CCC(O)(c2ccccc2)CC1 [Compound 5, 5,5-diphenyl-3-[3-(4-hydroxy-4-phenyl-1-piperidyl)propyl]hydantoin hydrochloride]
[1]
  ED50: 5.8 mg/kg
In vivo
  MLD (Minimum Lethal Dose): 31 mg/kg
  selectivity ratio: 5.35
Guinea pig atria
  EC50: > 10 µg/mL

## O=C1NC(c2ccccc2)(c2ccc([N+](=O)[O-])cc2)C(=O)N1CCCN1CCC(c2ccccc2)CC1 (centres unmarked) [Compound 14, 3-[3-(4-phenyl-1-piperidyl)propyl]-5-(4-nitrophenyl)-5-phenylhydantoin]
[1]
  ED50: 10.5 mg/kg
In vivo
  MLD (Minimum Lethal Dose): > 100 mg/kg
  selectivity ratio: > 9.52
Guinea pig atria; [4]
  EC50: 8.3 µg/mL (≈ 16.6 µM)

## CCN(CC)CCCN1C(=O)NC(c2ccccc2)(c2ccccc2)C1=O [II, 3-(3-diethylaminopropyl)-5,5-diphenylhydantoin, reference compound]
[1]
  ED50: 14 mg/kg
In vivo
  MLD (Minimum Lethal Dose): 56 mg/kg
  selectivity ratio: 4

## Cl.O=C1NC(c2ccccc2)(c2ccc(Br)cc2)C(=O)N1CCCN1CCC(c2ccccc2)CC1 (centres unmarked) [Compound 11, 3-[3-(4-phenyl-1-piperidyl)propyl]-5-(4-bromophenyl)-5-phenylhydantoin hydrochloride]
[1]
  ED50: 33.5 mg/kg
In vivo
  MLD (Minimum Lethal Dose): > 100 mg/kg
  selectivity ratio: > 2.98
Guinea pig atria; [4]
  EC50: 4 µg/mL

## Cl.O=C1NC(c2ccc(Cl)cc2)(c2ccc(Cl)cc2)C(=O)N1CCCN1CCC(c2ccccc2)CC1 [Compound 8, 3-[3-(4-phenyl-1-piperidyl)propyl]-5,5-di(4-chlorophenyl)hydantoin hydrochloride]
[1]
  ED50: 75 mg/kg
In vivo
  MLD (Minimum Lethal Dose): > 178 mg/kg
  selectivity ratio: > 2.28
Guinea pig atria; [4]
  EC50: > 10 µg/mL
